Reference: EP0804408B1, “NOVEL 4-SUBSTITUTED 2,6-DI-TERT-BUTYLPHENOL COMPOUNDS, PHARMACEUTICAL COMPOSITIONS CONTAINING SAME AND PREPARATION METHOD THEREFOR” (priority 1994, dated 1996)

Test system: VIH-1/LAI
Assay: Inactivation of HIV-1: infectious titre before/after treatment, titrated on MT4 cells (p24 antigen ELISA, day +10)
Assay type: cell-based
Source text: Afin d'évaluer l'efficacité d'AVF1, il a été procédé à la comparaison des titres infectieux de suspensions virales avant et après traitement par trois concentrations de AVF1 pendant trois temps de contact. A partir des résultats expérimentaux, il a été défini pour chaque concentration et chaque temps de contact testés, un facteur de […] du titre infectieux du VIH-1. Ce facteur de réduction exprimé en log 10 correspond au rapport du titre infectieux du virus non traité et du titre infectieux du virus traité par AVF1.
L'étude a été réalisée en deux étapes : • Traitement du VIH-1/LAI par trois concentrations d'AVF1 pendant 5, 30 et 60 minutes. • Evaluation des titres infectieux des échantillons obtenus avant et après traitement par AVF1 sur cellules MT4.
Le virus a été dilué au 1/10ème dans chacune des solutions de AVF1 (solution diluée à 2%, 1%, et 0,5%).
Le virus a été maintenu dans chacune de ces solutions pendant 5 minutes, 30 minutes et 60 minutes, à température ambiante puis immédiatement dilué en tampon NTE. Après dilution en tampn NTE, les échantillons ont été ultracentrifugés afin d'éliminer AVF1 et éviter ainsi sa toxicité sur les cellules MT4 utilisées pour le titrage du virus. Cette étape d'ultracentrifugation permet aussi de concentrer les particules virales résiduelles. Après centrifugation, chaque culot a été repris dans 1 ml de milieu de culture, filtré sur un filtre de 0,45 µm aliquoté et stocké à -80°C.
La même expérience a été réalisée deux fois.
La méthode de titrage du VIH-1 sur cellules MT4 est basée sur la détection d'une production virale par les cellules inoculées maintenues 10 jours en culture, mesurée par le dosage de l'antigène p24 VIH-1 dans le surnageant de culture.
Brièvement, les cellules MT4 sont inoculées avec des dilutions en série de virus non traité (contrôle positif) ou avec les échantillons expérimentaux (virus traités par AVF1).
Le VIH infecte les cellules, se multiplie, puis est libéré dans le surnageant de culture par bourgeonnement à la surface de la cellule. Afin de détecter la présence du virus, les surnageants de culture sont récupérés tous les 3 ou 4 jours et testés au jour +10 après l'infection quant à la présence de l'antigène p24 VIH-1.
La détection de l'antigène p24 VIH-1 est réalisée à l'aide d'une technique ELISA sandwich mettant en oeuvre la trousse ELAVIA AgI commercialisée par Diagnostic Pasteur, qui permet la détection de 50 pg d'antigène p24 par millilitre de surnageant.
Le principe de cette méthode est brièvement le suivant : l'antigène p24 libéré après la lyse des particules virales présentes dans le surnageant est complexé à des anticorps anti-VIH-1 immobilisés dans les puits des microplaques. L'antigène est alors révélé par anticorps polyclonaux anti-VIH-1 biotinylés, reconnus eux-mêmes par un conjugué streptavidine péroxydase. La présence de ce complexe est révélée par une réaction enzymatique après addition du substrat (H2O2) et du chromogène (OPD). Le produit de cette réaction est coloré et peut donc être détecté par mesure de la densité optique à 492 nm. La quantité de produit formé au cours de la réaction enzymatique est directement proportionnelle à la quantité d'antigène présente dans l'échantillon testé.
Les échantillons à tester ont été dilués ou non dans du milieu de culture. 1 ml d'échantillon non dilué, et 0,4 ml des dilutions suivantes ont été inoculés sur un culot de 1,2 10^6 cellules MT4. Après l'adsoption virale pendant 1 heure à 37°C, l'innoculum viral a été éliminé et les cellules lavées 3 fois en milieu de culture. Les cellules ont alors été resuspendues dans 4 ml de milieu de culture, distribuées dans 4 puits de plaque 24 puits et incubées à 37°C en présence de 5% de CO2.
Tous les 3 ou 4 jours, les surnageants de culture contenus dans chaque puits ont été prélevés et stockés à -80°C puis testés quant à la présence d'antigène p24 VIH-1.
Le titre infectieux est exprimé en "tissue Culture Infectious Dose 50" par millilitre d'échantillon (TCID 50/ml). […]

[1] = AVF1 0,5%, 5 minutes, 1ère expérience
[2] = AVF1 0,5%, 5 minutes, 2ème expérience
[3] = AVF1 0,5%, 30 minutes, 1ère expérience
[4] = AVF1 0,5%, 30 minutes, 2ème expérience
[5] = AVF1 0,5%, 60 minutes, 1ère expérience
[6] = AVF1 0,5%, 60 minutes, 2ème expérience
[7] = AVF1 1%, 5 minutes, 1ère expérience
[8] = AVF1 1%, 5 minutes, 2ème expérience
[9] = AVF1 1%, 30 minutes, 1ère expérience
[10] = AVF1 1%, 30 minutes, 2ème expérience
[11] = AVF1 1%, 60 minutes, 1ère expérience
[12] = AVF1 1%, 60 minutes, 2ème expérience
[13] = AVF1 2%, 5 minutes, 1ère expérience
[14] = AVF1 2%, 5 minutes, 2ème expérience
[15] = AVF1 2%, 30 minutes, 1ère expérience
[16] = AVF1 2%, 30 minutes, 2ème expérience
[17] = AVF1 2%, 60 minutes, 1ère expérience
[18] = AVF1 2%, 60 minutes, 2ème expérience

CC(C)(C)c1cc(C(=O)OCCOCCOCCOCCOCCOCCOCCOCCO)cc(C(C)(C)C)c1O [AVF1, 3,5-di-t-butyl-4-hydroxybenzoate d'octaoxyéthylèneglycol]
Facteur de réduction Log TCID50/ml [1]: > 6,9 Log TCID50/ml
Titre TCID 50/ml [1]: < 4 TCID 50/ml
Facteur de réduction Log TCID50/ml [2]: > 6,9 Log TCID50/ml
Titre TCID 50/ml [2]: < 4 TCID 50/ml
Facteur de réduction Log TCID50/ml [3]: > 6,9 Log TCID50/ml
Titre TCID 50/ml [3]: < 4 TCID 50/ml
Facteur de réduction Log TCID50/ml [4]: > 6,9 Log TCID50/ml
Titre TCID 50/ml [4]: < 4 TCID 50/ml
Facteur de réduction Log TCID50/ml [5]: > 6,9 Log TCID50/ml
Titre TCID 50/ml [5]: < 4 TCID 50/ml
Facteur de réduction Log TCID50/ml [6]: > 6,9 Log TCID50/ml
Titre TCID 50/ml [6]: < 4 TCID 50/ml
Facteur de réduction Log TCID50/ml [7]: > 6,9 Log TCID50/ml
Titre TCID 50/ml [7]: < 4 TCID 50/ml
Facteur de réduction Log TCID50/ml [8]: > 6,9 Log TCID50/ml
Titre TCID 50/ml [8]: < 4 TCID 50/ml
Facteur de réduction Log TCID50/ml [9]: > 6,9 Log TCID50/ml
Titre TCID 50/ml [9]: < 4 TCID 50/ml
Facteur de réduction Log TCID50/ml [10]: > 6,9 Log TCID50/ml
Titre TCID 50/ml [10]: < 4 TCID 50/ml
Facteur de réduction Log TCID50/ml [11]: > 6,9 Log TCID50/ml
Titre TCID 50/ml [11]: < 4 TCID 50/ml
Facteur de réduction Log TCID50/ml [12]: > 6,9 Log TCID50/ml
Titre TCID 50/ml [12]: < 4 TCID 50/ml
Facteur de réduction Log TCID50/ml [13]: > 6,9 Log TCID50/ml
Titre TCID 50/ml [13]: < 4 TCID 50/ml
Facteur de réduction Log TCID50/ml [14]: > 6,9 Log TCID50/ml
Titre TCID 50/ml [14]: < 4 TCID 50/ml
Facteur de réduction Log TCID50/ml [15]: > 6,9 Log TCID50/ml
Titre TCID 50/ml [15]: < 4 TCID 50/ml
Facteur de réduction Log TCID50/ml [16]: > 6,9 Log TCID50/ml
Titre TCID 50/ml [16]: < 4 TCID 50/ml
Facteur de réduction Log TCID50/ml [17]: > 6,9 Log TCID50/ml
Titre TCID 50/ml [17]: < 4 TCID 50/ml
Facteur de réduction Log TCID50/ml [18]: > 6,9 Log TCID50/ml
Titre TCID 50/ml [18]: < 4 TCID 50/ml
réduction du pouvoir infectieux (solution à 0,5% de AVF1, 5 minutes): ≥ 6,9 log TCID50/ml
particules infectieuses VIH-1 détectées (whatever the concentration (2%, 1%, 0,5%) and contact time (5, 30, 60 minutes)): Aucune particule infectieuse VIH-1 n'a été détectée
